Reference: patent US20120122848A1, “(+)-3-HYDROXYMORPHINAN DERIVATIVES AS NEUROPROTECTANTS” (GREEN CROSS CORPORATION, priority 2009, published 2012)
Structures can show the parent of a compound that is named as a salt.

Key:
[1] = Cell cytotoxicity test: protection of HT22 cells against glutamate toxicity (EC50) and cytotoxicity of the compounds (CC50), MTT; format: cell-based, mouse; settings: mouse, HT22 cells (mouse hippocampal neuron)
Procedure: (§1) HT22 cells (mouse hippocampal neuron, Salk Institute and KRIBB) were plated in a 96-well plate at a density of 3×10^3 cells/well for 16 hrs before treatment. The cells were treated with five millimolar glutamate and various concentrations of the inventive compounds and incubated for 24 hrs in a growth media (DMEM with 10% FBS and 1% penicillin streptomycin). Then, the cells were treated with 3-(4,5-dimethylthiazol-2-yl)-2,5-diphenyltetrazolium bromide (MTT, Sigma®) for 4 hrs and absorbance of each well was measured with a plate reader at a wavelength of 450 nm. [Da-Qing, et. al., Anti-oxidant and anti-inflammatory activities of macelignan in murine hippocampal cell line and primary culture of rat microglia cells, BBRC, 2005, 331, 1264-1269].
(§2) In Table 1, EC50 is neuroprotective effect against glutamate toxicity and CC50 is cytotoxicity of the compounds. The EC50 values were statistically analyzed using Prizm® (GraphPad Software Inc., San Diego, Calif., USA).

[2] = test system: HT22 cells (mouse hippocampal neuron); assay: as above; format: cell-based; settings: Mus musculus, HT-22, five millimolar glutamate, 24 hrs, read-out: EC50 (neuroprotective effect against glutamate toxicity)
Procedure: as §1, §2

SMILES: Oc1cc2c(cc1Nc1ccccc1F)C[C@@H]1NCC[C@]23CCCC[C@H]13 [Example 38, (+)-2-(2-Fluorophenylamino)-3-hydroxymorphinan TFA salt]
- CC50 at 24 h [1]: 11.8 µM
- EC50 [2]: 211 nM

SMILES: Oc1cc2c(cc1Nc1ccc3[nH]ncc3c1)C[C@@H]1NCC[C@]23CCCC[C@H]13 [Example 69, (+)-3-Hydroxy-2-((1H-indazol-5-yl)amino)morphinan TFA salt]
- CC50 at 24 h [1]: 48 µM
- EC50 [2]: 1020 nM

SMILES: O=S(=O)(Nc1ccccc1Nc1cc2c(cc1O)[C@]13CCCC[C@@H]1[C@H](C2)NCC3)c1ccccc1 [Example 113, (+)-2-(2-(Benzenesulfonamido)phenylamino)-3-hydroxymorphinan TFA salt]
- CC50 at 24 h [1]: 3.01 µM
- EC50 [2]: 27.2 nM

SMILES: COc1ccc(Nc2cc3c(cc2O)[C@]24CCCC[C@@H]2[C@H](C3)NCC4)cc1 [Example 31, (+)-3-Hydroxy-2-(4-methoxyphenylamino)morphinan TFA salt]
- CC50 at 24 h [1]: 7.5 µM
- EC50 [2]: 40.4 nM

SMILES: CCS(=O)(=O)Nc1ccccc1Nc1cc2c(cc1O)[C@]13CCCC[C@@H]1[C@H](C2)NCC3 [Example 111, (+)-2-(2-(Ethanesulfonamido)phenylamino)-3-hydroxymorphinan TFA salt]
- CC50 at 24 h [1]: 36.5 µM
- EC50 [2]: 475 nM

SMILES: Oc1cc2c(cc1NC1CCCCCC1)C[C@@H]1NCC[C@]23CCCC[C@H]13 [Example 94, (+)-2-Cycloheptylamino-3-hydroxymorphinan TFA salt]
- CC50 at 24 h [1]: 7.55 µM
- EC50 [2]: 102 nM

SMILES: CCCC(CCC)Nc1cc2c(cc1O)[C@]13CCCC[C@@H]1[C@H](C2)NCC3 [Example 89, (+)-2-(Heptan-4-ylamino)-3-hydroxymorphinan TFA salt]
- CC50 at 24 h [1]: 1.94 µM
- EC50 [2]: 74 nM

SMILES: Cc1ccccc1Nc1cc2c(cc1O)[C@]13CCCC[C@@H]1[C@H](C2)NCC3 [Example 41, (+)-3-Hydroxy-2-(2-methylphenylamino)morphinan TFA salt]
- CC50 at 24 h [1]: 6.9 µM
- EC50 [2]: 17.8 nM

SMILES: Oc1cc2c(cc1Nc1ccc3c(c1)OCCO3)C[C@@H]1NCC[C@]23CCCC[C@H]13 [Example 37, (+)-2((3,4-Ethylenedioxy)phenylamino)-3-hydroxymorphinan TFA salt]
- CC50 at 24 h [1]: 14.2 µM
- EC50 [2]: 140 nM

SMILES: CCNC(=O)Nc1ccccc1Nc1cc2c(cc1O)[C@]13CCCC[C@@H]1[C@H](C2)NCC3 [Example 120, (+)-2-(2-(Ethylureido)phenylamino)-3-hydroxymorphinan TFA salt]
- CC50 at 24 h [1]: 36.5 µM
- EC50 [2]: 8850 nM

SMILES: CS(=O)(=O)Nc1ccccc1Nc1c(O)cc2c(c1Br)C[C@@H]1NCC[C@]23CCCC[C@H]13 [Example 132, (+)-1-Bromo-3-hydroxy-2-(2-(methanesulfonamido)phenylamino)morphinan TFA salt]
- CC50 at 24 h [1]: 10.6 µM
- EC50 [2]: 237 nM

SMILES: CCNc1ccccc1Nc1cc2c(cc1O)[C@]13CCCC[C@@H]1[C@H](C2)NCC3 [Example 130, (+)-2-(2-(Ethylamino)phenylamino)-3-hydroxymorphinan TFA salt]
- CC50 at 24 h [1]: 1.6 µM
- EC50 [2]: 11.2 nM

SMILES: Oc1cc2c(cc1Nc1ccc3c(c1)OCO3)C[C@@H]1NCC[C@]23CCCC[C@H]13 [Example 36, (+)-3-Hydroxy-2-((3,4-methylendioxy)phenylamino)morphinan TFA salt]
- CC50 at 24 h [1]: 84.5 µM
- EC50 [2]: 301 nM

SMILES: Oc1cc2c(cc1Nc1cccc3cccnc13)C[C@@H]1NCC[C@]23CCCC[C@H]13 [Example 66, TFA salt]
- CC50 at 24 h [1]: 2.9 µM
- EC50 [2]: 21.3 nM

SMILES: CC1CCN(c2cc3c(cc2O)[C@]24CCCC[C@@H]2[C@H](C3)NCC4)CC1 [Example 19, (+)-3-Hydroxy-2-(4-methylpiperidin-1-yl)morphinan TFA salt]
- CC50 at 24 h [1]: 8.04 µM
- EC50 [2]: 272 nM

SMILES: Oc1cc2c(cc1Nc1ccccc1Cl)C[C@@H]1NCC[C@]23CCCC[C@H]13 [Example 48, (+)-2-(2-Chlorophenylamino)-3-hydroxymorphinan TFA salt]
- CC50 at 24 h [1]: 2.7 µM
- EC50 [2]: 99.1 nM

SMILES: CCOCCNc1cc2c(cc1O)[C@]13CCCC[C@@H]1[C@H](C2)NCC3 [Example 99, (+)-2-(2-Ethoxyethylamino)-3-hydroxymorphinan TFA salt]
- CC50 at 24 h [1]: > 100 µM
- EC50 [2]: 10400 nM

SMILES: Oc1cc2c(cc1NCCC(F)(F)F)C[C@@H]1NCC[C@]23CCCC[C@H]13 [Example 97, (+)-3-Hydroxy-2-(3-trifluoropropylamino)morphinan TFA salt]
- CC50 at 24 h [1]: 67 µM
- EC50 [2]: 183 nM

SMILES: Oc1cc2c(cc1Nc1ccccc1)C[C@@H]1NCC[C@]23CCCC[C@H]13 [Example 30, (+)-3-Hydroxy-2-(phenylamino)morphinan TFA salt]
- CC50 at 24 h [1]: 7.79 µM
- EC50 [2]: 35.8 nM

SMILES: CCN(CC)c1cc2c(cc1O)[C@]13CCCC[C@@H]1[C@H](C2)NCC3 [Example 101, (+)-2-(Diethylamino)-3-hydroxymorphinan TFA salt]
- CC50 at 24 h [1]: > 100 µM
- EC50 [2]: 14000 nM

SMILES: N#Cc1ccccc1Nc1cc2c(cc1O)[C@]13CCCC[C@@H]1[C@H](C2)NCC3 [Example 107, (+)-2-(2-Cyanophenylamino)-3-hydroxymorphinan TFA salt]
- CC50 at 24 h [1]: 5.8 µM
- EC50 [2]: 557 nM

SMILES: Oc1cc2c(cc1Nc1ccc3c(c1)CCCC3)C[C@@H]1NCC[C@]23CCCC[C@H]13 [Example 71, (+)-3-Hydroxy-24(5,6,7,8-tetrahydronaphthalen-2-ybamino)morphinan TFA salt]
- CC50 at 24 h [1]: 1.6 µM
- EC50 [2]: 36.2 nM

SMILES: Cc1c2c(cc(O)c1Nc1ccccc1NS(C)(=O)=O)[C@]13CCCC[C@@H]1[C@H](C2)NCC3 [Example 134, (+)-3-Hydroxy-2-(2-(methanesulfonamido)phenylamino)-1-methylmorphinan TFA salt]
- CC50 at 24 h [1]: 53.2 µM
- EC50 [2]: 153 nM

SMILES: Oc1cc2c(cc1Nc1ccc(Cl)cc1)C[C@@H]1NCC[C@]23CCCC[C@H]13 [Example 25, (+)-2-(4-Chlorophenylamino)-3-hydroxymorphinan TFA salt]
- CC50 at 24 h [1]: 1.87 µM
- EC50 [2]: 61 nM

SMILES: COc1ccccc1Nc1cc2c(cc1O)[C@]13CCCC[C@@H]1[C@H](C2)NCC3 [Example 42, (+)-3-Hydroxy-2-(2-methoxyphenylamino)morphinan TFA salt]
- CC50 at 24 h [1]: 11.4 µM
- EC50 [2]: 95.9 nM

SMILES: CCCCNc1cc2c(cc1O)[C@]13CCCC[C@@H]1[C@H](C2)NCC3 [Example 90, (+)-2-Butylamino-3-hydroxymorphinan TFA salt]
- CC50 at 24 h [1]: 35 µM
- EC50 [2]: 74.7 nM

SMILES: Cc1ccc(-c2cc3c(cc2O)[C@]24CCCC[C@@H]2[C@H](C3)NCC4)cc1 [Example 75, (+)-3-Hydroxy-2-(4-methylphenyl)morphinan TFA salt]
- CC50 at 24 h [1]: 9.4 µM
- EC50 [2]: 1660 nM

SMILES: CC(C)Nc1cc2c(cc1O)[C@]13CCCC[C@@H]1[C@H](C2)NCC3 [Example 87, (+)-3-Hydroxy-2-isopropylaminomorphinan TFA salt]
- CC50 at 24 h [1]: 39.5 µM
- EC50 [2]: 35.4 nM

SMILES: CC(C)c1ccccc1Nc1cc2c(cc1O)[C@]13CCCC[C@@H]1[C@H](C2)NCC3 [Example 50, (+)-3-Hydroxy-2-(2-isopropylphenylamino)morphinan TFA salt]
- CC50 at 24 h [1]: 1 µM
- EC50 [2]: 43 nM

SMILES: Oc1cc2c(cc1N1CCCCCC1)C[C@@H]1NCC[C@]23CCCC[C@H]13 [Example 17, (+)-2-(Azepan-1-yl)-3-hydroxymorphinan TFA salt]
- CC50 at 24 h [1]: 12.2 µM
- EC50 [2]: 579 nM

SMILES: CN(c1ccc(F)cc1)c1cc2c(cc1O)[C@]13CCCC[C@@H]1[C@H](C2)NCC3 [Example 124, (+)-2-(4-Fluorophenyl(methyl)amino)-3-hydroxymorphinan TFA salt]
- CC50 at 24 h [1]: 6.4 µM
- EC50 [2]: 371 nM

SMILES: CS(=O)(=O)Nc1ccccc1Nc1c(O)cc2c(c1Cl)C[C@@H]1NCC[C@]23CCCC[C@H]13 [Example 133, (+)-1-Chloro-3-hydroxy-2-(2-(methanesulfonamido)phenylamino)morphinan TFA salt]
- CC50 at 24 h [1]: 16.5 µM
- EC50 [2]: 256 nM

SMILES: CC(C)(C)Nc1cc2c(cc1O)[C@]13CCCC[C@@H]1[C@H](C2)NCC3 [Example 20, (+)-2-(tert-Butylamino)-3-hydroxymorphinan TFA salt]
- CC50 at 24 h [1]: > 100 µM
- EC50 [2]: 423 nM

SMILES: Oc1cccc(Nc2cc3c(cc2O)[C@]24CCCC[C@@H]2[C@H](C3)NCC4)c1 [Example 44, (+)-3-Hydroxy-2-(3-hydroxyphenylamino)morphinan TFA salt]
- CC50 at 24 h [1]: 75 µM
- EC50 [2]: 802 nM

SMILES: CCCCc1cc2c(cc1O)[C@]13CCCC[C@@H]1[C@H](C2)NCC3 [Example 83, (+)-2-Butyl-3-hydroxymorphinan TFA salt]
- CC50 at 24 h [1]: 51.5 µM
- EC50 [2]: 2070 nM

SMILES: Oc1cc2c(cc1N1CCCCC1)C[C@@H]1NCC[C@]23CCCC[C@H]13 [Example 21, (+)-3-Hydroxy-2-(piperidin-1-yl)morphinan TFA salt]
- CC50 at 24 h [1]: 63.5 µM
- EC50 [2]: 482 nM

SMILES: Oc1ccc(Nc2cc3c(cc2O)[C@]24CCCC[C@@H]2[C@H](C3)NCC4)c(O)c1 [Example 45, (+)-2-(2,4-Dihydroxyphenylamino)-3-hydroxymorphinan TFA salt]
- CC50 at 24 h [1]: 40.9 µM
- EC50 [2]: 73.1 nM

SMILES: CCCc1cc2c(cc1O)[C@]13CCCC[C@@H]1[C@H](C2)NCC3 [Example 82, (+)-3-Hydroxy-2-propylmorphinan TFA salt]
- CC50 at 24 h [1]: 28.2 µM
- EC50 [2]: 1020 nM

SMILES: Oc1cc2c(cc1NC1CCCCC1)C[C@@H]1NCC[C@]23CCCC[C@H]13 [Example 93, (+)-2-Cyclohexylamino-3-hydroxymorphinan TFA salt]
- CC50 at 24 h [1]: 13.8 µM
- EC50 [2]: 98.6 nM
